# Experimental data from US9463174B2, “Pharmaceutical composition for the treatment of type-1 diabetes” (priority 2008, dated 2016).
# Entries after “also recorded” stand apart in the source; their conditions may differ.
# Tests used:
# MLDS CD1 mice = test: Prevention of multiple-low-dose-streptozotocin (MLDS) induced diabetes by daily GABA injection; format: in vivo
# Experimental: As shown in the FIG. 1, the diabetes induction by multiple-low-dose-streptozotocin (i.p. 40 mg/kg for four consecutive days, MLDS) in mice can be prevented by daily injection of GABA. The MLSD murine model is commonly used for study of T1D (Rossini A A et al, 1978 Nature. 276(5684):182-4; Harlan D M et al, 1995 Diabetes 44(7):816-23) in which the beta-cells are destroyed by the toxic streptozotocin that leads to insulin insufficiency. To certain extent, T-cell mediated beta-cell inflammation (insulitis) is found in the multiple-low-dose streptozotocin induced diabetic hyperglycemia. However, insulitis may not be necessary occurred in the hyperglycemic mice induced by one injection of streptozotocin of high dose (i.e. 200-250 mg/kg), as in the latter case the beta-cell are rapidly destroyed. […] GABA has no effect on the glucose tolerance in normal mice as determined by intraperitoneal glucose tolerance test (IPGTT) 7 days before STZ injection.
# (§1) The techniques used for the in vivo and in vitro studies in this embodiment of the disclosure are also described. CD1 mice (Charles River Laboratories, St Constant, Canada), NOD mice and transgenic TCR NOD mice (Jackson Laboratory, USA) were housed under a controlled temperature and a 12-h light/12-h dark cycle in the St. Michael's Hospital Animal facility with free access to food (normal rodent chow) and water, except where noted. All procedures were conducted according to protocols and guidelines approved by the Canadian Council of Animal Care and the St. Michael's Hospital Animal Care committee. Mice were treated with GABA by daily intraperitoneal (i.p.) injection of 20·g GABA per mouse to reach ˜200 μM circulation concentration and PBS as control. The daily treatment is continuously conducted during 60-day experimental period. One wk after the GABA and PBS treatment, diabetes was induced in both groups by i.p.-injection of low-dose streptozotocin (STZ, Sigma Chemical Co., St. Louis, Mo. 40 mg/kg body weight) for 5 consecutive days. The development of hyperglycemia was monitored by measuring blood glucose from the tail vein every third day following STZ injections using an Ascensia ELITE® XL glucose meter. For some studies, overtly diabetic mice induced by STZ and without GABA treatment were divided into two groups: one group started receiving daily i.p. injection of 20·g GABA whereas other group received only PBS. The treatment was continued for 75 days. The handling of the NOD mice were similar to those CD1 mice except the STZ injection. The NOD mice have a susceptibility to spontaneous development of autoimmune T1D. The TCR transgenic 8.3-NOD mice have a markedly accelerated disease (J. Vergdaguer et al, 1997 J Exp Med. 186(10):1663-76).
# Groups of mice were subject to a glucose tolerance test (IPGTT) before treatment (day 0), one, three, and five weeks after administration and the day prior termination. For IPGTT, mice were fasted overnight for 15 h, and were given 1.5 g glucose/kg body weight via i.p.-injection. Blood was drawn from the tail vein and blood glucose was measured at 0, 10, 20, 30, 60, 90, and 120 min after glucose administration.
# Insulin tolerance test (ITT) was performed in non-fasting mice by i.p.-injection of 2.5 unit insulin/kg body weight. Blood was drawn from the tail vein and blood glucose levels were measured at 0, 20, 30, 40, 60, 90, and 120 min after insulin administration. Glucagon tolerance test (GTT) was performed in 15 hrs fasted mice: glucagon were i.p.-injected (50 ng/g body weight) and blood was drawn from the tail vein and blood glucose levels were measured at 0, 10, 20, 30, 60, 90, and 120 min after glucagon administration.
# Mice were housed in metabolic cages prior to initiation of GABA and PBS treatment and before termination of experiments. Food intake, water consumption and urine output were measured. To determine the fat distribution, three intra-abdominal fat pads retroperitoneal, mesenteric and epididymal were dissected and weighed. […]
# [1] = system: established diabetic hyperglycemic NOD mice; test: Treatment of established diabetes in NOD mice (GABA alone or GABA plus Ex4); format: in vivo
# Experimental: as §1
# Mice were housed in metabolic cages prior to initiation of GABA and PBS treatment and before termination of experiments. Food intake, water consumption and urine output were measured. To determine the fat distribution, three intra-abdominal fat pads retroperitoneal, mesenteric and epididymal were dissected and weighed. Subcutaneous fat was also analyzed.
# All data are presented as mean±SEM. Statistic analysis was performed using Student's t-test or analysis of variance (ANOVA) with ‘n−1’ post hoc custom hypotheses tests, as appropriate, with the SAS software (Statistical Analysis Systems, Cary, N.C.) or the GraphPad Prism 3.0 program (GraphPad Software Inc., San Diego, Calif.). The incidence of diabetes was plotted using the Kaplan-Meier method and statistical comparisons made with the log-rank test. The significance of differences in insulitis scores was determined with the Chi-squared test. The differences between groups in the in vitro proliferation and cytokine release assays were determined by analysis of variance (ANOVA). Significance was assumed at p<0.05.
# INS-1 cells = test: Cell proliferation assay by 3H-thymidine incorporation; format: cell-based
# Experimental: INS-1 cells were grown to 80-85% confluence in 12-well plates, serum-starved for 24 h and then treated with GABA at various concentrations in the presence of 3 mmol/l glucose. Some cells were also pre-incubated with GABA receptor antagonist for 20 h prior before the treatment. DNA synthesis was measured by incubating cells with 37 kBq/ml 3H-methylthymidine (specific activity: 3000 GBq/mmol; Amersham Pharmacia Biotech) for 4 h. Cells were then washed twice in ice-cold PBS and incubated for 30 min in 1 ml of 5% trichloroacetic acid on ice to precipitate the DNA. The liquid layer was removed by aspiration and 250 μl of 0.1 mol/l sodium hydroxide was added to the cells for 30 min at room temperature. During this time the container was gently shaken. The solubilised material was then transferred to 5 ml of scintillant, and radioactive counts were determined by liquid scintillation counting.
# [2] = GABA treated vs non-treated MLDS-mice
# [3] = GABA treated vs untreated MLDS-mice
# [4] = GABA vs non-GABA treated MLDS-mice
# [5] = pancreatic immunohistochemistry, vs non-treated MLDS-mice
compound,measurement,setting,value
"NCCCC(=O)O [GABA, gamma-aminobutyric acid]",glucose tolerance in normal mice (IPGTT),MLDS CD1 mice; 7 days before STZ injection,no effect
same,glucose tolerance (IPGTT),MLDS CD1 mice; [2],significant improved glucose tolerance; also recorded: maintained close to normal glucose tolerance
same,"glucose tolerance, area under curve",MLDS CD1 mice; [2],significantly improved
same,circulating insulin,MLDS CD1 mice; [3],significantly elevated circulating insulin levels
same,ratio of insulin to glucagon levels,MLDS CD1 mice; [3],increased ratio of insulin to glucagon levels; also recorded: significantly increased insulin/glucagon ratio
same,serum glucagon levels,MLDS CD1 mice; [3],reduced serum glucagon levels; also recorded: significantly reduced glucagon levels
same,circulating IL-12,MLDS CD1 mice; [4],significantly reduced
same,circulating INF-gamma,MLDS CD1 mice; [4],significantly reduced
same,circulating level of TNF-alpha,MLDS CD1 mice; [4],significantly decreased
same,circulating level of pro-inflammatory IL-1 (IL-1-beta),MLDS CD1 mice; [4],significantly decreased
same,serum level of IL-6,MLDS CD1 mice; [4],not different
same,serum level of Th2 cytokine IL-10,MLDS CD1 mice; [4],not different
same,diabetic symptoms such as polydipsia and polyuria,"MLDS CD1 mice; MLDS mice, metabolic studies",significantly improved diabetic symptoms
same,diabetic sickness,"MLDS CD1 mice; MLDS mice, throughout the feeding course",not found in any mouse
same,glucagon tolerance (glucagon tolerance test),MLDS CD1 mice; MLDS-mice,significantly improved glucagon tolerance; also recorded: largely improved
same,"improvement of glucagon intolerance, area under curve",MLDS CD1 mice; MLDS-mice,statistically significant
same,insulin sensitivity (insulin tolerance test),MLDS CD1 mice; MLDS-mice,does not alter the insulin sensitivity; also recorded: did not alter the insulin sensitivity
same,insulitis scored by HE staining for infiltrated lymphocytes in the islets,MLDS CD1 mice; MLDS-mice,significant reduction of insulitis
same,number of GABA treated STZ mice that developed overt hyperglycemia,"MLDS CD1 mice; after 7-day MLDS injection, control mice 8 of total 8",one
same,development of diabetic hyperglycemia (blood glucose),"MLDS CD1 mice; daily i.p. GABA 20·g/mouse, MLDS CD1 mice, vs untreated",prevents development of diabetic hyperglycemia; also recorded: remarkably prevented development of hyperglycemia
same,alpha-cell mass,MLDS CD1 mice; [5],significantly reduced alpha-cell mass
same,beta-cell mass,MLDS CD1 mice; [5],significantly reserved the beta-cell mass
same,time for which lower blood glucose levels were maintained,[1]; GABA alone,about two
same,blood glucose levels,"[1]; GABA vs PBS, after onset of hyperglycemia",significantly reduced blood glucose levels
same,sickness,[1]; GABA-treated group,no obvious sickness was developed
same,diabetic symptoms (metabolic studies),[1]; GABA-treated vs PBS,significantly lessened
same,reversal of diabetic hyperglycemia / remission,"[1]; after onset of diabetic hyperglycemia, combination determined at two weeks after treatment",transient effect; also recorded: not able to achieve a full remission; also recorded: not effective in completely reversing diabetic hyperglycemia
same,incidence of diabetes,"[1]; diabetes when blood glucose ≧12 mM, GABA 20·g mouse, Ex4 1 nmol/kg, therapies PBS, GABA alone, GABA plus Ex4",significantly lower
same,feces,[1]; established diabetic NOD mice,reduced
same,food intake,[1]; established diabetic NOD mice,reduced
same,urine,[1]; established diabetic NOD mice,reduced
same,water consumption,[1]; established diabetic NOD mice,reduced
same,3H-thymidine incorporation into INS-1 cells,"INS-1 cells; GABA 100 mM, time-dependent manner",increased the ^3H-thymidine incorporation
same,INS-1 cell proliferation (3H-thymidine incorporation),"INS-1 cells; various concentrations, 3 mmol/l glucose",dose-dependently increased INS-1 cell proliferation
